Literature values, collected in PubChem BioAssay AID1259409 (Chemical Carcinogenesis Research Information System (CCRIS), 2018).

Test system: rodent chemically induced tumor inhibition, incidence and multiplicity
Experiment: CCRIS tumor inhibitor studies
Settings: Dose [Inhibitor]: 0, Promoter: NONE USED
Excerpt: The CCRIS database contains chemical records with carcinogenicity, mutagenicity, tumor promotion, and tumor inhibition test results. It was developed by the National Cancer Institute (NCI). Data are derived from studies cited in primary journals, current awareness tools, NCI reports, and other sources. Test results have been reviewed by experts in carcinogenesis and mutagenesis.
CCRIS provides historical information from the years 1985 - 2011. It is no longer updated.
This is an archive assay for CCRIS tumor inhibitor studies.

## S=C=NCCc1ccccc1
Carcinogen: BENZO[A]PYRENE, 50-32-8, 12 MG/KG/D FOR 6 CONSECUTIVE DAYS (STUDY DURATION: 7 MO), Route [Inhibitor]: GAVAGE, Species: MOUSE, Strain/Sex: STRAIN-A/FEMALE, Target Tissue: Type of Lesion: LUNG: TUMOR, Dose [Carcinogen]: 100 MG/KG ONCE AFTER FOURTH INHIBITOR DOSE
  tumour outcome (control, treated, inhibition, significance): 100%, 100%, 0%, not significant
Carcinogen: BENZO[A]PYRENE, 50-32-8, 12 MG/KG/D FOR 6 CONSECUTIVE DAYS (STUDY DURATION: 7 MO), Route [Inhibitor]: GAVAGE, Species: MOUSE, Strain/Sex: STRAIN-A/MALE, Target Tissue: Type of Lesion: LUNG: TUMOR, Dose [Carcinogen]: 100 MG/KG ONCE AFTER FOURTH INHIBITOR DOSE
  tumour outcome (control, treated, inhibition, significance): 100%, 100%, 0%, not significant
Carcinogen: BENZO[A]PYRENE, 50-32-8, 41 MG/KG/D FOR 6 CONSECUTIVE DAYS (STUDY DURATION: 7 MO), Route [Inhibitor]: GAVAGE, Species: MOUSE, Strain/Sex: STRAIN-A/FEMALE, Target Tissue: Type of Lesion: LUNG: TUMOR, Dose [Carcinogen]: 100 MG/KG ONCE AFTER FOURTH INHIBITOR DOSE
  tumour outcome (control, treated, inhibition, significance): 100%, 100%, 0%, not significant
Carcinogen: BENZO[A]PYRENE, 50-32-8, 41 MG/KG/D FOR 6 CONSECUTIVE DAYS (STUDY DURATION: 7 MO), Route [Inhibitor]: GAVAGE, Species: MOUSE, Strain/Sex: STRAIN-A/MALE, Target Tissue: Type of Lesion: LUNG: TUMOR, Dose [Carcinogen]: 100 MG/KG ONCE AFTER FOURTH INHIBITOR DOSE
  tumour outcome (control, treated, inhibition, significance): 100%, 95%, 5%, not calculated
Carcinogen: BENZO[A]PYRENE, 50-32-8, 82 MG/KG/D FOR 6 CONSECUTIVE DAYS (STUDY DURATION: 7 MO), Route [Inhibitor]: GAVAGE, Species: MOUSE, Strain/Sex: STRAIN-A/FEMALE, Target Tissue: Type of Lesion: LUNG: TUMOR, Dose [Carcinogen]: 100 MG/KG ONCE AFTER FOURTH INHIBITOR DOSE
  tumour outcome (control, treated, inhibition, significance): 100%, 100%, 0%, not significant
Carcinogen: BENZO[A]PYRENE, 50-32-8, 82 MG/KG/D FOR 6 CONSECUTIVE DAYS (STUDY DURATION: 7 MO), Route [Inhibitor]: GAVAGE, Species: MOUSE, Strain/Sex: STRAIN-A/MALE, Target Tissue: Type of Lesion: LUNG: TUMOR, Dose [Carcinogen]: 100 MG/KG ONCE AFTER FOURTH INHIBITION DOSE
  tumour outcome (control, treated, inhibition, significance): 100%, 100%, 0%, not significant
Carcinogen: BENZO[A]PYRENE, 50-32-8, 122 MG/KG/D FOR 6 CONSECUTIVE DAYS (STUDY DURATION: 7 MO), Route [Inhibitor]: GAVAGE, Species: MOUSE, Strain/Sex: STRAIN-A/FEMALE, Target Tissue: Type of Lesion: LUNG: TUMOR, Dose [Carcinogen]: 100 MG/KG ONCE AFTER FOURTH INHIBITOR DOSE
  tumour outcome (control, treated, inhibition, significance): 100%, 90%, 10%, not significant
Carcinogen: BENZO[A]PYRENE, 50-32-8, 122 MG/KG/D FOR 6 CONSECUTIVE DAYS (STUDY DURATION: 7 MO), Route [Inhibitor]: GAVAGE, Species: MOUSE, Strain/Sex: STRAIN-A/MALE, Target Tissue: Type of Lesion: LUNG: TUMOR, Dose [Carcinogen]: 100 MG/KG ONCE AFTER FOURTH INHIBITOR DOSE
  tumour outcome (control, treated, inhibition, significance): 100%, 95%, 5%, not significant
Carcinogen: DIETHYLNITROSAMINE, 55-18-5, 82 MG/KG BW BY INTRAPERITONEAL INJECTION ON DAYS 13, 14 AND 15 OF AGE THEN 0.65 G/KG DIET FROM 21 TO 161 DAYS OF AGE, Route [Inhibitor]: INTRAPERITONEAL, ORAL, Species: MOUSE, Strain/Sex: C3H/MALE, Target Tissue: Type of Lesion: LIVER: ADENOMA, Dose [Carcinogen]: 4 MG/KG IN TRICAPRYLIN ONCE ON DAY 15 OF AGE
  tumour outcome (control, treated, inhibition, significance): 100%, 89%, 11%, not significant
Carcinogen: DIETHYLNITROSAMINE, 55-18-5, N-METHYL-N-NITROSOUREA, 684-93-5, N-BUTYL-N-(4-HYDROXYBUTYL)NITROSAMINE, 3817-11-6, DIMETHY, Carcinogen: DIETHYLNITROSAMINE, 55-18-5, N-METHYL-N-NITROSOUREA, 684-93-5, N-BUTYL-N-(4-HYDROXYBUTYL)NITROSAMINE, 3817-11-6, DIMETHY, 0.1% IN THE DIET FOR 24 WK BEGINNING 1 DAY POST CARCINOGEN TREATMENT (STUDY DURATION: 28 WK), Route [Inhibitor]: ORAL, Species: RAT, Strain/Sex: F344/MALE, Target Tissue: Type of Lesion: LARGE INTESTINE: ADENOMA, Dose [Carcinogen]: 100 MG/KG BW DEN ONCE FOLLOWED BY 20 MG/KG BW MNU 4 TIMES AND 0.05% BBN IN DRINKING WATER DURING FIRST 2 WK THEN 40 MG/K
  tumour outcome (control, treated, inhibition, significance): 27%, 7%, 74%, not significant
Carcinogen: DIETHYLNITROSAMINE, 55-18-5, N-METHYL-N-NITROSOUREA, 684-93-5, N-BUTYL-N-(4-HYDROXYBUTYL)NITROSAMINE, 3817-11-6, DIMETHY, Carcinogen: DIETHYLNITROSAMINE, 55-18-5, N-METHYL-N-NITROSOUREA, 684-93-5, N-BUTYL-N-(4-HYDROXYBUTYL)NITROSAMINE, 3817-11-6, DIMETHY, 0.1% IN THE DIET FOR 24 WK BEGINNING 1 DAY POST CARCINOGEN TREATMENT (STUDY DURATION: 28 WK), Route [Inhibitor]: ORAL, Species: RAT, Strain/Sex: F344/MALE, Target Tissue: Type of Lesion: LARGE INTESTINE: CARCINOMA, Dose [Carcinogen]: 100 MG/KG BW DEN ONCE FOLLOWED BY 20 MG/KG BW MNU 4 TIMES AND 0.05% BBN IN DRINKING WATER DURING FIRST 2 WK THEN 40 MG/K
  tumour outcome (control, treated, inhibition, significance): 7%, 0%, 100%, not significant
Carcinogen: DIETHYLNITROSAMINE, 55-18-5, N-METHYL-N-NITROSOUREA, 684-93-5, N-BUTYL-N-(4-HYDROXYBUTYL)NITROSAMINE, 3817-11-6, DIMETHY, Carcinogen: DIETHYLNITROSAMINE, 55-18-5, N-METHYL-N-NITROSOUREA, 684-93-5, N-BUTYL-N-(4-HYDROXYBUTYL)NITROSAMINE, 3817-11-6, DIMETHY, 0.1% IN THE DIET FOR 24 WK BEGINNING 1 DAY POST CARCINOGEN TREATMENT (STUDY DURATION: 28 WK), Route [Inhibitor]: ORAL, Species: RAT, Strain/Sex: F344/MALE, Target Tissue: Type of Lesion: SMALL INTESTINE: ADENOMA, Dose [Carcinogen]: 100 MG/KG BW DEN ONCE FOLLOWED BY 20 MG/KG BW MNU 4 TIMES AND 0.05% BBN IN DRINKING WATER DURING FIRST 2 WK THEN 40 MG/K
  tumour outcome (control, treated, inhibition, significance): 33%, 50%, -52%, not significant
Carcinogen: DIETHYLNITROSAMINE, 55-18-5, N-METHYL-N-NITROSOUREA, 684-93-5, N-BUTYL-N-(4-HYDROXYBUTYL)NITROSAMINE, 3817-11-6, DIMETHY, Carcinogen: DIETHYLNITROSAMINE, 55-18-5, N-METHYL-N-NITROSOUREA, 684-93-5, N-BUTYL-N-(4-HYDROXYBUTYL)NITROSAMINE, 3817-11-6, DIMETHY, 0.1% IN THE DIET FOR 24 WK BEGINNING 1 DAY POST CARCINOGEN TREATMENT (STUDY DURATION: 28 WK), Route [Inhibitor]: ORAL, Species: RAT, Strain/Sex: F344/MALE, Target Tissue: Type of Lesion: SMALL INTESTINE: CARCINOMA, Dose [Carcinogen]: 100 MG/KG BW DEN ONCE FOLLOWED BY 20 MG/KG BW MNU 4 TIMES AND 0.05% BBN IN DRINKING WATER DURING FIRST 2 WK THEN 40 MG/K
  tumour outcome (control, treated, inhibition, significance): 7%, 14%, -100%, not significant
Carcinogen: DIETHYLNITROSAMINE, 55-18-5, N-METHYL-N-NITROSOUREA, 684-93-5, N-BUTYL-N-(4-HYDROXYBUTYL)NITROSAMINE, 3817-11-6, DIMETHY, Carcinogen: DIETHYLNITROSAMINE, 55-18-5, N-METHYL-N-NITROSOUREA, 684-93-5, N-BUTYL-N-(4-HYDROXYBUTYL)NITROSAMINE, 3817-11-6, DIMETHY, 0.1% IN THE DIET FOR 24 WK BEGINNING 1 DAY POST CARCINOGEN TREATMENT (STUDY DURATION: 28 WK), Route [Inhibitor]: ORAL, Species: RAT, Strain/Sex: F344/MALE, Target Tissue: Type of Lesion: THYROID: CARCINOMA, Dose [Carcinogen]: 100 MG/KG BW DEN ONCE FOLLOWED BY 20 MG/KG BW MNU 4 TIMES AND 0.05% BBN IN DRINKING WATER DURING FIRST 2 WK THEN 40 MG/K
  tumour outcome (control, treated, inhibition, significance): 7%, 8%, -14%, not significant
Carcinogen: DIETHYLNITROSAMINE, 55-18-5, N-METHYL-N-NITROSOUREA, 684-93-5, N-BUTYL-N-(4-HYDROXYBUTYL)NITROSAMINE, 3817-11-6, DIMETHY, Carcinogen: DIETHYLNITROSAMINE, 55-18-5, N-METHYL-N-NITROSOUREA, 684-93-5, N-BUTYL-N-(4-HYDROXYBUTYL)NITROSAMINE, 3817-11-6, DIMETHY, 0.1% IN THE DIET FOR 24 WK BEGINNING 1 DAY POST CARCINOGEN TREATMENT (STUDY DURATION: 28 WK), Route [Inhibitor]: ORAL, Species: RAT, Strain/Sex: F344/MALE, Target Tissue: Type of Lesion: URINARY BLADDER: PAPILLOMA, Dose [Carcinogen]: 100 MG/KG BW DEN ONCE FOLLOWED BY 20 MG/KG BW MNU 4 TIMES AND 0.05% BBN IN DRINKING WATER DURING FIRST 2 WK THEN 40 MG/K
  tumour outcome (control, treated, inhibition, significance): 7%, 33%, -371%, not significant
Carcinogen: DIETHYLNITROSAMINE, 55-18-5, N-METHYL-N-NITROSOUREA, 684-93-5, N-BUTYL-N-(4-HYDROXYBUTYL)NITROSAMINE, 3817-11-6, DIMETHY, Carcinogen: DIETHYLNITROSAMINE, 55-18-5, N-METHYL-N-NITROSOUREA, 684-93-5, N-BUTYL-N-(4-HYDROXYBUTYL)NITROSAMINE, 3817-11-6, DIMETHY, 0.1% IN THE DIET FOR 24 WK BEGINNING 1 WK P0ST CARCINOGEN TREATMENT (STUDY DURATION: 28 WK), Route [Inhibitor]: ORAL, Species: RAT, Strain/Sex: F344/MALE, Target Tissue: Type of Lesion: URINARY BLADDER: CARCINOMA, Dose [Carcinogen]: 100 MG/KG BW DEN ONCE FOLLOWED BY 20 MG/KG BW MNU 4 TIMES AND 0.05% BBN IN DRINKING WATER DURING FIRST 2 WK THEN 40 MG/K
  tumour outcome (control, treated, inhibition, significance): 7%, 33%, -371%, not significant
